Columns and labels:
[1] = refractive index (Na D-line) (dimensionless); an = ratio of the nth substance listed; settings: 100 kPa, Liquid, Standard Abbe refractometry, a1 = 2
[2] = an = ratio of the nth substance listed; settings: 100 kPa, Liquid, a1 = 2; for viscosity: Falling or rolling sphere viscometry; for speed of sound: Sing-around technique in a fixed-path interferometer; for mass density: Vibrating tube method
[3] = 100 kPa, Liquid; for viscosity: Falling or rolling sphere viscometry; for speed of sound: Sing-around technique in a fixed-path interferometer; for mass density: Vibrating tube method
[4] = refractive index (Na D-line) (dimensionless); settings: 100 kPa, Liquid, Standard Abbe refractometry

CC(=O)CCC(=O)O [4-oxopentanoic acid] + C[N+](C)(C)CCO.[Cl-]
Settings	mass density, [2] [kg/m3]	refractive index, [1]	speed of sound, [2] [m/s]	viscosity, [2] [mPa·s]
293.15 K	1141.05	1.46987	1764	365.3
298.15 K	1137.7	1.46867	1749	255.8
303.15 K	1134.34	1.4673	1734	185.5
308.15 K	1130.99	1.46595	1720	136.5
313.15 K	1127.63	1.46457	1707	103.7
318.15 K	1124.3	1.4632	1693	81.5
323.15 K	1120.98	1.4618	1680	64.8
328.15 K	1117.68	1.46041	1667	51.7
333.15 K	1114.69	1.45902	1654	43
338.15 K	1111.41	1.45761	1641	34.1
343.15 K	1108.1	1.45623	1628	28.6

CCCO [propan-1-ol]
Settings	mass density, [3] [kg/m3]	refractive index, [4]	speed of sound, [3] [m/s]	viscosity, [3] [mPa·s]
298.15 K	799.69	1.38275	1209	1.943
308.15 K	792.76	1.37857	1175	1.549
318.15 K	784.45	1.37421	1141	1.252

CCO [ethanol]
Settings	mass density, [3] [kg/m3]	refractive index, [4]	speed of sound, [3] [m/s]	viscosity, [3] [mPa·s]
298.15 K	785.06	1.35905	1143	1.083
308.15 K	776.4	1.35501	1109	0.901
318.15 K	767.6	1.35083	1075	0.758

CCCCO [butan-1-ol]
Settings	mass density, [3] [kg/m3]	refractive index, [4]	speed of sound, [3] [m/s]	viscosity, [3] [mPa·s]
298.15 K	805.75	1.39697	1240	2.568
308.15 K	798.06	1.39281	1206	1.998
318.15 K	790.22	1.38857	1173	1.578

CCCCCO [pentan-1-ol]
Settings	mass density, [3] [kg/m3]	refractive index, [4]	speed of sound, [3] [m/s]	viscosity, [3] [mPa·s]
298.15 K	810.88	1.40752	1276	3.502
308.15 K	803.5	1.40352	1242	2.662
318.15 K	795.98	1.39942	1209	2.061

Reference: the NIST ThermoML archive (doi:10.1021/acs.jced.6b00563)
